{"source": "patent US8044103B2", "about": "“Cyclic dipeptides and azetidinone compounds and their use in treating CNS injury and neurodegenerative disorders” (Georgetown University, priority 1998, dated 2011)", "key": {"[1]": {"test_system": "mice following controlled cortical impact injury (CCI)", "experiment": "Morris watermaze, working memory version, after controlled cortical impact injury", "assay_type": "in vivo, Male C57Bl/6 mice", "conditions": "1.0 mg/kg at 30 min following CCI; day 24 after trauma; p<0.05", "experimental": "FIG. 7 provides a graph illustrating the latency of finding a hidden platform in a working memory version of the Morris watermaze for uninjured control mice (sham+saline) and mice treated with normal saline (CCI+saline) or 1.0 mg/kg Compound 2a (CCI+Compound 2a) at 30 min. following controlled cortical injury (CCI). Filled bars (▪) represent the first of two consecutive trials; unfilled bars ( ? ) represent the second of two consecutive trials. Results are expressed as daily means±SEM for each group over four trial pairs. * indicates p<0.05 with respect to uninjured controls (sham+saline); # indicates p<0.05 with respect to injured saline-treated controls (CCI+saline).\nConscious mice were placed in a mouse restrainer and injected via the lateral tail vein with either normal saline (injured controls; n=6), 1 mg/kg Compound 2a (n=8), Compound 10b (n=6), Compound 11b (n=6) or Compound 14c (n=6) at 30 minutes following controlled cortical impact injury (CCI). The values for n represents the number of mice in the particular treatment group. The investigator was blinded to drug treatment both at the time of surgery and for neurological and behavioral scoring.\nTo determine the effect of CCI on working memory, the daily mean latency (+SEM) to find the goal platform on both trials was calculated for each group. […]"}, "[2]": {"test_system": "rats following moderate fluid percussion injury", "experiment": "Mortality after moderate fluid percussion injury", "assay_type": "in vivo, Male Sprague-Dawley rats", "conditions": "1 mg/kg i.v. 30 min following moderate fluid percussion injury; died before the end of the study; saline 21.4% and 37.5%", "experimental": "Rats were anesthetized with sodium pentobarbital (70 mg/kg i.p.), intubated, and implanted with femoral venous and arterial catheters. Brain temperature was assessed indirectly through a thermister in the temporalis muscle. Body temperature was maintained through a feedback-controlled heating blanket. Blood pressure was continuously monitored, and arterial blood gases analyzed periodically. After the animal was placed in a stereotaxic frame, the scalp and temporal muscle were reflected, and a small craniotomy (5 mm) located midway between the lambda and bregma sutures over the left parietal cortex allowed insertion of a Leur-Loc that is cemented in place. The fluid-percussion head injury device, manufactured by the Medical College of Virginia, consists of a plexiglass cylindrical reservoir filled with isotonic saline; one end includes a transducer that is mounted and connected to a 5 mm tube that attaches through a male Leur-Loc fitting to the female Leur-Loc cemented at the time of surgery. A pendulum strikes a piston at the opposite end of the device, producing a pressure pulse of approximately 22 msec duration, leading to deformation of underlying brain. The degree of injury is related to the pressure pulse, expressed in atmospheres (atm): 2.6 atm in our laboratory produces a moderate injury with regard to neurological and histological deficit. Sham (control) animals undergo anesthesia and surgery without fluid percussion brain injury. […]\nContinuous variables compared across groups were examined using an analysis of variance (ANOVA) followed by Bonferroni correction (rightin reflex). Continuous variables subjected to repeated measurements over a period of time (cardiovascular and core temperature measurements) were analyzed using a repeated measurements ANOVA followed by Tukey's pairwise comparison at each time point. Ordinal measurements (composite neurological scores) were evaluated using the non-parametric Kruskal-Wallis ANOVA with individual, non-parametric Mann-Whitney U-tests. […]"}}}
{"compound": "O=C1NC2(CCCCC2)C(=O)N2CCC[C@@H]12", "note": "[Compound 2a, Cyclo[(1-Amino-1-Cyclohexane-Carboxylic Acid)-Pro]]", "values": [{"measurement": "latency to goal platform, first of trial pair (reference memory), versus untreated injured animals", "setting": "[1]", "value": "significantly improved"}, {"measurement": "latency to goal platform, second of trial pair (working memory), versus untreated injured animals", "setting": "[1]", "value": "significantly improved"}, {"measurement": "mortality rate", "setting": "[2]", "value": 25, "unit": "%"}]}
